Laboratory results: patent publication US8912220B2 (priority 2009, dated 2014)

Target: human 5-HT2C(VSV) (Homo sapiens, UniProt P28335, I156V/I160V/N158S)
Assay: cell-based

human 5-HT2C(VSV), sequence (P28335 33-458 I156V/N158S/I160V limits assumed): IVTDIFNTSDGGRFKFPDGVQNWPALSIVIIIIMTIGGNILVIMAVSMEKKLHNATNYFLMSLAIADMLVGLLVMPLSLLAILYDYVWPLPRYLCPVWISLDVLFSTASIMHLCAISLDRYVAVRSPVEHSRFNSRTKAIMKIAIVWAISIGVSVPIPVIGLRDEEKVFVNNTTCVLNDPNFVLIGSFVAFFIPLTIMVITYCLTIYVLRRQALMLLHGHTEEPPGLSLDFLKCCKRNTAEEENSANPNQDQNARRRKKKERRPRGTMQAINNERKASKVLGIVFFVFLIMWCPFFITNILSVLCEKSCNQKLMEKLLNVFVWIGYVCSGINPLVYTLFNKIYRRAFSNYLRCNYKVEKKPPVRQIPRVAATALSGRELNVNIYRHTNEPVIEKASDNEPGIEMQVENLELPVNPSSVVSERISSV

| Structure (SMILES) | EC50 |
| --- | --- |
| CCn1cc(CCN2CCCC2)c2c(O)cc(F)cc21 [11-6, 1-ethyl-6-fluoro-3-(2-(pyrrolidin-1-yl)ethyl)-1H-indol-4-ol] | 1 to 500 nM |
| CCn1cc(CCNCC(C)c2ccccc2)c2c(O)cc(F)cc21 (stereo not shown) [39-6, 1-ethyl-6-fluoro-3-(2-(2-phenylpropylamino)ethyl)-1H-indol-4-ol] | 1 to 500 nM |
| COc1ccc(-c2ccc[nH]2)c2c1c(CCN(C)C)cn2C [6-10, 2-(4-methoxy-1-methyl-7-(1H-pyrrol-2-yl)-1H-indol-3-yl)-N,N-dimethylethanamine] | 500 to 10000 nM |
| CCn1cc(CCNC(C)c2ccccc2)c2c(OC)ccc(F)c21 (stereo not shown) [20-8, 2-(1-ethyl-7-fluoro-4-methoxy-1H-indol-3-yl)-N-(1-phenylethyl)ethanamine] | 1 to 500 nM |
| COc1c(F)ccc2c1c(CCN1CCN(c3cccc(Cl)c3)CC1)cn2C [17-15, 3-(2-(4-(3-chlorophenyl)piperazin-1-yl)ethyl)-5-fluoro-4-methoxy-1-methyl-1H-indole] | 1 to 500 nM |
| CNCCc1cn(C)c2ccc(F)c(OCc3ccc(F)cc3)c12 [33-35, 2-(5-fluoro-4-(4-fluorobenzyloxy)-1-methyl-1H-indol-3-yl)-N-methylethanamine] | 1 to 500 nM |
| CCn1cc(CCNCCc2cccc(C(F)(F)F)c2)c2c(O)cc(F)cc21 [26-10, 1-ethyl-6-fluoro-3-(2-(3-(trifluoromethyl)phenethylamino)ethyl)-1H-indol-4-ol] | 1 to 500 nM |
| CNCCc1cn(C)c2c(F)cc(CCc3ccccc3)c(OC)c12 [23-4, 2-(7-fluoro-4-methoxy-1-methyl-5-phenethyl-1H-indol-3-yl)-N-methylethanamine] | 500 to 10000 nM |
| COc1ccc(C#CCO)c2c1c(CCN(C)C)cn2C [6-11, 3-(3-(2-(dimethylamino)ethyl)-4-methoxy-1-methyl-1H-indol-7-yl)prop-2-yn-1-ol] | 1 to 500 nM |
| CCn1cc(CCN(C)C)c2c(OCc3ccc(OC)cc3)cc(F)cc21 [1-15b, 2-(1-ethyl-6-fluoro-4-(4-methoxybenzyloxy)-1H-indol-3-yl)-N,N-dimethylethanamine] | 1 to 500 nM |
| CNCCc1cn(C)c2c(F)cc(-c3ccccc3)c(OC)c12 [22-5, 2-(7-fluoro-4-methoxy-1-methyl-5-phenyl-1H-indol-3-yl)-N-methylethanamine] | 1 to 500 nM |
| CN(C)CCc1cn(Cc2ccccc2)c2c(F)ccc(OCc3ccccc3)c12 [7-2, 2-(1-benzyl-4-(benzyloxy)-7-fluoro-1H-indol-3-yl)-N,N-dimethylethanamine] | 500 to 10000 nM |
| CCn1cc(CCN(C)C)c2c(Oc3ccccc3[N+](=O)[O-])ccc(F)c21 [2-2, 2-(1-ethyl-7-fluoro-4-(2-nitrophenoxy)-1H-indol-3-yl)-N,N-dimethylethanamine] | 500 to 10000 nM |
| COc1ccc(-c2ccsc2)c2c1c(CCN(C)C)cn2C [6-13, 2-(4-methoxy-1-methyl-7-(thiophen-3-yl)-1H-indol-3-yl)-N,N-dimethylethanamine] | 500 to 10000 nM |
| CNCCc1cn(C)c2ccc(F)c(OCCc3ccccc3C)c12 [33-17, 2-(5-fluoro-1-methyl-4-(2-methylphenethoxy)-1H-indol-3-yl)-N-methylethanamine] | 1 to 500 nM |
| CNCCc1cn(C)c2cc(F)cc(OCc3cccc(Cl)c3)c12 [33-46, 2-(4-(3-chlorobenzyloxy)-6-fluoro-1-methyl-1H-indol-3-yl)-N-methylethanamine] | 1 to 500 nM |
| CCCn1cc(CCNCc2cccc(C)n2)c2c(O)c(F)ccc21 [17-19, 5-fluoro-3-(2-(((6-methylpyridin-2-yl)methyl)amino)ethyl)-1-propyl-1H-indol-4-ol] | < 10000 nM |

| Structure (SMILES) | EC50 |
| --- | --- |
| CCn1cc(CCNCc2ccccc2)c2c(OC)ccc(F)c21 [20-4, N-benzyl-2-(1-ethyl-7-fluoro-4-methoxy-1H-indol-3-yl)ethanamine] | 1 to 500 nM |
| CCn1cc(CCN(C)C)c2c(OCc3ccc(F)cc3)cc(F)cc21 [1-14b, 2-(1-ethyl-6-fluoro-4-(4-fluorobenzyloxy)-1H-indol-3-yl)-N,N-dimethylethanamine] | 1 to 500 nM |
| CCn1cc(CCN2C[C@@H]3C[C@H]2CN3Cc2ccccc2)c2c(O)cc(F)cc21 [31-7, 3-(2-((1S,4S)-5-benzyl-2,5-diazabicyclo[2.2.1]heptan-2-yl)ethyl)-1-ethyl-6-fluoro-1H-indol-4-ol] | 500 to 10000 nM |
| CNCCc1cn(C)c2ccc(F)c(OC(C)c3ccccc3)c12 (stereo not shown) [33-32, 2-(5-fluoro-1-methyl-4-(1-phenylethoxy)-1H-indol-3-yl)-N-methylethanamine] | 1 to 500 nM |
| CNCCc1cn(C)c2ccc(F)c(OCc3cccc(C(F)(F)F)c3)c12 [33-21, 2-(5-fluoro-1-methyl-4-(3-(trifluoromethyl)benzyloxy)-1H-indol-3-yl)-N-methylethanamine] | 1 to 500 nM |
| CNCCc1cn(C)c2ccc(F)c(OCc3ccccc3C)c12 [33-22, 2-(5-fluoro-1-methyl-4-(2-methylbenzyloxy)-1H-indol-3-yl)-N-methylethanamine] | 1 to 500 nM |
| COc1ccc(CCCO)c2c1c(CCN(C)C)cn2C [25-4, 3-(3-(2-(dimethylamino)ethyl)-4-methoxy-1-methyl-1H-indol-7-yl)propan-1-ol] | 500 to 10000 nM |
| CCOc1c(F)ccc2c1c(CCNCc1ccccc1)cn2C [30-15, N-benzyl-2-(4-ethoxy-5-fluoro-1-methyl-1H-indol-3-yl)ethanamine] | 1 to 500 nM |
| CNCCc1cn(C)c2ccc(F)c(OCc3ccccc3-c3ccccc3)c12 [33-30, 2-(4-(biphenyl-2-ylmethoxy)-5-fluoro-1-methyl-1H-indol-3-yl)-N-methylethanamine] | 1 to 500 nM |
| CCn1cc(CCN(C)C)c2c(OCc3ccc(C(F)(F)F)cc3)cc(F)cc21 [1-12b, 2-(1-ethyl-6-fluoro-4-(4-(trifluoromethyl)benzyloxy)-1H-indol-3-yl)-N,N-dimethylethanamine] | 500 to 10000 nM |
| CNCCc1cn(C)c2ccc(F)c(OCc3ccccc3OC(F)(F)F)c12 [33-34, 2-(5-fluoro-1-methyl-4-(2-(trifluoromethoxy)benzyloxy)-1H-indol-3-yl)-N-methylethanamine] | 1 to 500 nM |
| CNCCc1cn(C)c2ccc(F)c(OCC(O)c3ccccc3Cl)c12 (stereo not shown) [33-37, 1-(2-chlorophenyl)-2-(5-fluoro-1-methyl-3-(2-(methylamino)ethyl)-1H-indol-4-yloxy)ethanol] | 1 to 500 nM |
| CCn1cc(CCN(C)C)c2c(OC)c(CCc3nc4ccccc4[nH]3)cc(F)c21 [29-4, 2-(5-(2-(1H-benzo[d]imidazol-2-yl)ethyl)-1-ethyl-7-fluoro-4-methoxy-1H-indol-3-yl)-N,N-dimethylethanamine] | 1 to 500 nM |
| COc1ccc(F)c2c1c(C(C)CN)cn2C (stereo not shown) [9-5, 2-(7-fluoro-4-methoxy-1-methyl-1H-indol-3-yl)propan-1-amine] | 1 to 500 nM |
| CNCCc1cn(C)c2ccc(F)c(OCc3cc(F)ccc3C)c12 [33-33, 2-(5-fluoro-4-(5-fluoro-2-methylbenzyloxy)-1-methyl-1H-indol-3-yl)-N-methylethanamine] | 1 to 500 nM |
| CCn1cc(CCNCc2ccccc2C)c2c(OC)ccc(F)c21 [20-9, 2-(1-ethyl-7-fluoro-4-methoxy-1H-indol-3-yl)-N-(2-methylbenzyl)ethanamine] | 1 to 500 nM |
| CNCCc1cn(C)c2ccc(F)c(OCc3ccc(C)cc3)c12 [33-27, 2-(5-fluoro-1-methyl-4-(4-methylbenzyloxy)-1H-indol-3-yl)-N-methylethanamine] | 1 to 500 nM |
